PubChem BioAssay (NCI)
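The compound was tested at five concentrations on cells cultured in 96-well plates, with a 48-hour exposure period. GI50: concentration for 50% inhibition of growth. TGI denotes the concentration required for complete inhibition of growth.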

How the values were obtained:
Experiment in all cases: inhibition of tumour cell growth, NCI panel, 48 h
COLO 205 colon = tested on: COLO 205 colon
HL-60(TB) leukemia = tested on: HL-60(TB) leukemia
K-562 leukemia = tested on: K-562 leukemia
KM12 colon = tested on: KM12 colon
MALME-3M melanoma = tested on: MALME-3M melanoma
MCF7 breast = tested on: MCF7 breast
MOLT-4 leukemia = tested on: MOLT-4 leukemia
NCI-H522 lung = tested on: NCI-H522 lung
OVCAR-3 ovarian = tested on: OVCAR-3 ovarian
OVCAR-4 ovarian = tested on: OVCAR-4 ovarian
RXF 393 renal = tested on: RXF 393 renal
SK-MEL-5 melanoma = tested on: SK-MEL-5 melanoma
SNB-19 CNS = tested on: SNB-19 CNS
UACC-257 melanoma = tested on: UACC-257 melanoma
UO-31 renal = tested on: UO-31 renal
U251 CNS = tested on: U251 CNS

| SMILES | TGI (COLO 205 colon) [µM] | TGI (HL-60(TB) leukemia) [µM] | TGI (K-562 leukemia) [µM] | TGI (KM12 colon) [µM] | TGI (MALME-3M melanoma) [µM] | TGI (MCF7 breast) [µM] | TGI (MOLT-4 leukemia) [µM] | TGI (NCI-H522 lung) [µM] | TGI (OVCAR-3 ovarian) [µM] | TGI (OVCAR-4 ovarian) [µM] | TGI (RXF 393 renal) [µM] | TGI (SK-MEL-5 melanoma) [µM] | TGI (SNB-19 CNS) [µM] | TGI (UACC-257 melanoma) [µM] | TGI (UO-31 renal) [µM] | TGI (U251 CNS) [µM] | GI50 (KM12 colon) [µM] | GI50 (MALME-3M melanoma) [µM] | GI50 (MOLT-4 leukemia) [µM] |
| --- | --- | --- | --- | --- | --- | --- | --- | --- | --- | --- | --- | --- | --- | --- | --- | --- | --- | --- | --- |
| COc1ccc(C)cc1NC(=S)N/N=C/c1ccco1 | 65.5 | 86.2 | > 100 | > 100 | > 100 | > 100 | > 100 | 69.2 | > 100 | > 100 | > 100 | 32.9 | > 100 | > 100 | > 100 |  |  |  |  |
| CCOC(=O)C1=C(C)N(Cc2ccccc2)C2(O)C=CC(=O)C3C(=O)N(c4ccccc4)C(=O)C132 (stereo not drawn) | 3.1 | 4.98 | 27.3 | 4.59 | 7.68 | 12.7 | 5.54 | 3.32 | 6.08 | 6.45 | 2.94 | 12.8 | 21.4 | 7.59 | 3.81 | 11.8 |  |  |  |
| C=C1C(=O)OC2/C=C(\CO)C3OC3C3OC3(C)CC(OC(=O)/C(=C/C)COC(C)=O)C12 (stereo not drawn) | 3.06 |  | > 100 | 19 | 3.09 | 20.1 | > 100 | 1.2 | 11.4 | 24.1 | 3.96 | 20.1 | 28.6 | 12.6 | 23.7 | 16.8 |  |  |  |
| COc1cccc(/C=N/[N+](C)(C)C)c1O | > 10 | > 10 | > 10 | > 10 | > 10 | > 10 | > 10 | > 10 | > 10 | > 10 | > 10 | > 10 | > 10 | > 10 | > 10 | > 10 |  |  |  |
| O=C1Nc2ccccc2C1(O)Cc1ccccn1 (stereo not drawn) | > 100 | > 100 | > 100 | > 100 | > 100 | > 100 |  | > 100 | > 100 | > 100 | > 100 | > 100 | > 100 | > 100 | > 100 | > 100 |  |  |  |
| O=c1c2cc([N+](=O)[O-])ccc2[nH]n1Cc1ccccc1Cl | > 100 | > 100 | > 100 | > 100 | > 100 |  | > 100 | > 100 | > 100 | > 100 | > 100 | > 100 | > 100 | > 100 | > 100 | > 100 |  |  |  |
| CSc1nc2c(ncn2C2OC(CO)C(O)C(O)C2O)c(=O)n1C (stereo not drawn) | > 100 | > 100 | > 100 | > 100 | > 100 | > 100 | > 100 | > 100 | > 100 | > 100 | > 100 | > 100 | > 100 | > 100 | > 100 | > 100 |  |  |  |
| COc1cc2c(cc1OCCCN1CCOCC1)N=C[C@@H]1CCCN1C2=O | 4.55 | 29.6 | > 100 | 43.4 | 33.6 | > 100 | > 100 | 3.97 | 8.08 | 40.1 | 8.13 | 27.4 | > 100 | 78.9 | > 100 | > 100 |  |  |  |
| Nc1nc2cc(COc3ccc(C(=O)O)cc3)ccc2nc1-c1ccccc1 | > 10 | > 10 | > 10 | > 10 |  | > 10 | > 10 | > 10 | > 10 | > 10 | > 10 | > 10 | > 10 | > 10 | > 10 | > 10 |  |  |  |
| O=C1C=CC2(C=C1)O[C@H](CCc1ccccc1)[C@@H](CCc1ccccc1)O2 | > 100 | > 100 | > 100 | > 100 | > 100 | > 100 | > 100 |  | > 100 | > 100 | > 100 | > 100 | > 100 | > 100 | > 100 | 38.2 |  |  |  |
| O=C(O)C(C1NCCS1)N1C(=O)c2ccccc2C1=O (stereo not drawn) | > 100 | > 100 | > 100 | > 100 | > 100 | > 100 | > 100 | > 100 | > 100 | > 100 | > 100 | > 100 | > 100 | > 100 | > 100 | > 100 |  |  |  |
| O=C1Sc2sc(=S)sc2SC1c1ccccc1 (stereo not drawn) | > 63.6 | > 31.6 | > 70.7 | > 100 | > 83.5 | > 100 | > 100 | 19.5 | > 31.6 | > 31.6 | 76.6 | > 100 | > 100 | > 100 | > 86.7 | > 100 |  |  |  |
| Nc1nc(N)c2ncn(Cc3ccccc3CO)c2n1 | > 100 | > 100 | > 100 | > 100 | > 100 | > 100 | > 100 | > 100 | > 100 | > 100 |  | > 100 | > 100 | > 100 | > 100 | > 100 |  |  |  |
| Cc1ccnn1CCc1ccc(Cl)cc1Cl | > 100 | 42.4 | > 100 | > 100 | > 100 | > 100 | 56.6 |  | 45.3 | > 100 | 82.9 | 37.7 | > 100 | > 100 | 46.3 | > 100 |  |  |  |
| Cc1ccc(C(=O)c2[nH]c(NCc3ccccc3)c(C(=S)Nc3ccccc3)c2N)cc1 | 18 | 33.5 | 5.11 | 6.34 |  | 13.2 | 6.38 | 4.96 | 25.2 | 12.5 | 20.7 |  | 29.1 | 18.4 | 18.2 | 15.6 |  |  |  |
| COc1cc2c(/C=C3/C(=O)Nc4cc(C)c(O)cc43)c(Cl)[nH]c2cc1C | 4.62 |  | 3.9 | 10.2 | 11.6 | 13.4 | 0.835 | 11.1 | 3.68 | 24.1 | 7.1 | 12.5 | 14.8 | 19.6 | 17.7 | 15.7 |  |  |  |
| C=C1C(=O)OC2/C=C(CO)/C=C\C3OC3(C)CC(OC(=O)/C(C)=C/COC(C)=O)C12 (stereo not drawn) | 2.99 | 1.48 | > 20.7 | 14.2 | 3.38 | 16.4 | 5.49 | 1.81 | 6.68 | 16.4 | 4.12 | 15.9 | 25.1 | 6.59 | 17.9 | 14.5 |  |  |  |
| CS(C)(=O)=Nn1c(=O)n2n(c1=O)[C@H]1CC[C@@H]2C1 | > 100 | > 100 | > 100 | > 100 | > 100 | > 100 | > 100 | > 100 | > 100 |  | > 100 | > 100 | > 100 | > 100 | > 100 | > 100 |  |  |  |
| O=C(c1ccsc1)c1nccc2c1cnc1ccccc12 | > 100 | 6.65 |  | > 100 | > 100 | > 100 | 24.3 | 62 | > 100 | > 100 | > 100 | > 100 | > 100 | > 100 | > 100 | > 100 |  |  |  |
| COc1ccc2[nH]c(=O)cc(C)c2c1[N+](=O)[O-] | > 100 | > 100 | > 100 | > 100 | > 100 |  | > 100 | > 100 | > 100 | > 100 |  | > 100 | > 100 | > 100 | > 100 | > 100 |  |  |  |
| COc1cnc2oc3ccc(O)cc3c2c1-c1ccccc1 | > 100 | > 100 | > 100 | > 100 | > 100 | > 100 | > 100 | > 100 | > 100 | > 100 | > 100 | > 100 |  | > 100 | > 100 | > 100 |  |  |  |
| O=C(N/N=C/c1cc(Cl)cc(Cl)c1[O-])c1ccccc1O.O=C(N/N=C/c1cc(Cl)cc(Cl)c1[O-])c1ccccc1O.[Mn+2] |  | 0.404 | 17.2 | 15.9 | 7.79 |  | 14.8 | 0.737 | 1.02 | 1.58 | 5.7 | 2.63 | 16.1 | 11.9 | 11.1 | 5.52 | 0.448 | 1.34 | 0.289 |
| COc1ccc(C(=O)c2[nH]c(Nc3cc(C)ccn3)c(C(=S)Nc3ccccc3)c2N)cc1 | 41.5 | 64 | > 100 | 39.2 | 30.8 | 75.2 | > 100 | 29.9 | > 100 | 36.5 | 38.4 |  | 56 | 32.7 | 57.4 | 36.4 |  |  |  |
| CC1=CC2=C(C=O)C(=O)[C@](C)(O)[C@@H](O)C2=CO1 | > 82 |  | > 90.9 | > 100 | > 70.2 | > 100 | 41.3 | 38.5 | 5.58 | > 100 | 52.3 | 68.1 | 5.5 | > 100 | 43.8 | > 76.8 |  |  |  |
| CC(C)(C(=O)N(C(=O)N1CCN(c2ccccc2)CC1)S(=O)(=O)c1ccccc1)c1ccc(Cl)cc1 | 42.7 | > 100 | > 100 | > 100 | > 100 | > 100 | 17.6 | 26.3 | 99.3 | > 100 | > 100 | > 100 | > 100 | > 100 | 34.3 | > 100 |  |  |  |
| COc1cc(C2c3cc4c(cc3[C@@H](Nc3cnc5ccccc5c3)C3COC(=O)[C@H]23)OCO4)cc(OC)c1O (stereo partly drawn) | 3.39 | 0.377 | 7.33 | 2.67 | 2.43 | > 31.7 |  | 3.19 | 3.9 | 4.43 | 3 | 1.78 | 9.53 | 6.64 | 3.3 | 0.6 |  |  |  |
